From US12037345B2, “Heterobicyclic compounds for inhibiting the activity of SHP2” (TAIHO PHARMACEUTICAL CO., LTD., priority 2018, dated 2024) come the findings set out here.

Counter-ions that a name gives are not always drawn. Like-named read-outs stand apart in the source and are kept apart here.

Assay [1] relates to pERK (phospho-p44/42 MAPK Thr202/Tyr204) in HCC827 cells. Nature of the assay: Cellular pERK Inhibition Assay, Method B (PathScan phospho-p44/42 MAPK sandwich ELISA). Format: cell-based. As to conditions: for IC50: Homo sapiens. The procedure: Cellular pERK Inhibition Assay
HCC827 cells (ATCC, Manassas, USA) were seeded into 96-well plates at a density of 1×10^5 cells/well in RPMI medium supplemented with 10% FBS and incubated 24h. Compounds were diluted first in DMSO and then into serum-free medium, before being added to cells in triplicate to give a final concentration of 0.1% DMSO. Plates were incubated at 37° C. for the indicated time in a humidified atmosphere of 5% CO2 in air.
Following compound treatment, medium was removed and cells were lysed by adding 50 μL of lysis buffer (Cell Signalling Technology, Beverly, USA) to each well. Plates were then incubated at room temperature for 25 minutes with shaking. pERK levels were measured in lysates using the PathScan(Registered Trademark) phospho-p44/42 MAPK (Thr202/Tyr204) sandwich ELISA (Cell Signalling Technology, Beverly, USA) as per kit instructions. Briefly, 50 μL of cell lysate was added to 50 μL of ELISA sample diluent in a 96-well ELISA plate and incubated overnight at 4° C. Following washing, 100 μL of detection antibody was added per well and the plates incubated for 1 hour at 37° C. Plates were washed again and incubated at 37° C. for 30 minutes with 100 μl of HRP-linked secondary antibody per well. After final washing, 100 μL per well of TMB substrate was added and plates incubated at 37° C. to develop colour. Colour development was stopped by the addition of 100 μL per well of stop solution. Plates were read at 450 nm on a SpectraMax Gemini reader (Molecular Devices, Uckfield, UK).
The average signal from blank wells (no cells added) was subtracted from the signals from each sample well. Levels of pERK were then expressed as “percent of control”, using DMSO treated samples as control. Dose response curves were generated using GraphPad Prism Version 6 (GraphPad Software, La Jolla, USA) and fitted using the four parameter logistic curve fit.

Another assay concerns the target SHP2 (Homo sapiens (Human), UniProt Q06124). Put plainly: SHP2 Biochemical Assay (DiFMUP conversion, pIRS1-activated). The method in brief: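 Human SHP2 (10 pM) pre-incubated 30 min with compound and […] pIRS1 activating peptide, then 50 μM DiFMUP added; buffer 25 mM Bis-Tris propane pH 7.0, 150 mM NaCl, 5% DMSO. Fluorescence rate (ex 360/em 450 nm) over 30 min; IC50 by four-parameter fit, averaged across experiments.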

Setting [2] is: Table 19, head prints unit as "-M", read-out: pERK (IC50) Method B.
The mark [3] stands for this setting: Table 19, head prints unit as "-M".
The mark [4] stands for this setting: Table 20, read-out: pERK (IC50, μM) Method B.

Chain of SHP2 (Q06124 whole entry): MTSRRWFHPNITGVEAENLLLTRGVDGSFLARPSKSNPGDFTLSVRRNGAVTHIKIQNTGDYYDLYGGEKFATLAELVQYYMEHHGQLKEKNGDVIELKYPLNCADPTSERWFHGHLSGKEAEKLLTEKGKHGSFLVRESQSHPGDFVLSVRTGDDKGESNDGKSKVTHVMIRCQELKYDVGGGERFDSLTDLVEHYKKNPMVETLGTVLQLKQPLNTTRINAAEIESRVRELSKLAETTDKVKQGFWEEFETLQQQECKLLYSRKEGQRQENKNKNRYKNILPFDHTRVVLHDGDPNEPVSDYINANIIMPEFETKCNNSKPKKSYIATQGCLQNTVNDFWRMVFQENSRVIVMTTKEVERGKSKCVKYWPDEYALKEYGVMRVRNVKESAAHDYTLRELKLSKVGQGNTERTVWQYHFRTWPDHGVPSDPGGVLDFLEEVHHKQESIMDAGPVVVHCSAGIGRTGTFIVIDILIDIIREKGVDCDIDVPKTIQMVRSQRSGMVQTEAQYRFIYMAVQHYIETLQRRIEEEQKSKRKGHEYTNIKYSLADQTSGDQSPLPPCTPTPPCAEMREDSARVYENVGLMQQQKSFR

With `CCn1cc2c(Cl)c(-c3c[nH]c4nc(N5CC6CNC(C6)C5)n(C)c(=O)c34)ccc2n1` (single isomer, unassigned) [Example 191, 5-(4-chloro-2-ethyl-2H-indazol-5-yl)-2-{3,6-diazabicyclo[3.2.1]octan-3-yl}-3-methyl-3H,4H,7H-pyrrolo[2,3-d]pyrimidin-4-one hydrochloride], in assay [1] (Table 20, at 10 uM), the “pERK Method B, % at given concentration” value amounted to 60% at 10 uM. Besides, the IC50 at SHP2 (Table 20) is 92 nM.
In the case of `CCn1cc2c(Cl)c(-c3n[nH]c4nc(N5CCC6(CC5)CO[C@@H](C)[C@H]6N)n(C)c(=O)c34)ccc2n1` [Example 148, 6-[(3S,4S)-4-amino-3-methyl-2-oxa-8-azaspiro[4.5]decan-8-yl]-3-(4-chloro-2-ethyl-2H-indazol-5-yl)-5-methyl-1H,4H,5H-pyrazolo[3,4-d]pyrimidin-4-one hydrochloride salt], the IC50 worked out at 0.025 µM in assay [1] (setting [2]) and 24 nM against SHP2 (setting [3]).
On the same counts, the results for `CCn1cc2c(Cl)c(-c3c[nH]c4nc(N5CCCC(N)CC5)n(C)c(=O)c34)ccc2n1` (racemic) [Example 154, rac-2-(4-aminoazepan-1-yl)-5-(4-chloro-2-ethyl-2H-indazol-5-yl)-3-methyl-3H,4H,7H-pyrrolo[2,3-d]pyrimidin-4-one hydrochloride] are 0.92 µM and 21 nM.
Regarding `Cn1cc2c(Cl)c(-c3c[nH]c4nc(N5[C@H]6CCNC[C@@H]5CC6)n(C)c(=O)c34)ccc2n1` [Example 188, 5-(4-chloro-2-methyl-2H-indazol-5-yl)-2-[(1S,6R)-3,9-diazabicyclo[4.2.1]nonan-9-yl]-3-methyl-3H,4H,7H-pyrrolo[2,3-d]pyrimidin-4-one hydrochloride], the IC50 came out at 0.56 µM in assay [1] (setting [4]) and 41 nM on SHP2 (Table 20).
On to `Cn1cc2c(Cl)c(-c3n[nH]c4nc(N5CCC6(CC5)C[C@@H](F)C[C@H]6N)n(C)c(=O)c34)ccc2n1` [Example 144, 6-[(1R,3R)-1-amino-3-fluoro-8-azaspiro[4.5]decan-8-yl]-3-(4-chloro-2-methyl-2H-indazol-5-yl)-5-methyl-1H,4H,5H-pyrazolo[3,4-d]pyrimidin-4-one hydrochloride salt], for which the IC50 amounted to 0.21 µM in assay [1] (setting [2]) and 19 nM against SHP2 (setting [3]).
With `Cn1cc2c(Cl)c(-c3n[nH]c4nc(N5CCC6(CCC[C@H]6N)CC5)n(C)c(=O)c34)ccc2n1` [Example 142, 6-[(1R)-1-amino-8-azaspiro[4.5]decan-8-yl]-3-(4-chloro-2-methyl-2H-indazol-5-yl)-5-methyl-1H,4H,5H-pyrazolo[3,4-d]pyrimidin-4-one], the IC50 in assay [1] (setting [2]) was 0.11 µM; against SHP2 (setting [3]), 17 nM.
Regarding `Cn1cc2c(Cl)c(-c3n[nH]c4nc(N5CCC6(CC5)CNC6)n(C)c(=O)c34)ccc2n1` [Example 141, 3-(4-chloro-2-methyl-2H-indazol-5-yl)-6-{2,7-diazaspiro[3.5]nonan-7-yl}-5-methyl-1H,4H,5H-pyrazolo[3,4-d]pyrimidin-4-one], in assay [1] (Table 19, at 10 μM), the “pERK Method B, % at given concentration” value was found to be 64% at 10 μM. The IC50 against SHP2 (setting [3]) is 43 nM.
For the compound `CCn1cc2c(Cl)c(-c3c[nH]c4nc(N5CC6CNCC5C6)n(C)c(=O)c34)ccc2n1` (single isomer, unassigned) [Example 192, 5-(4-chloro-2-ethyl-2H-indazol-5-yl)-2-{3,6-diazabicyclo[3.2.1]octan-6-yl}-3-methyl-3H,4H,7H-pyrrolo[2,3-d]pyrimidin-4-one hydrochloride], the IC50 amounted to 0.99 µM in assay [1] (setting [4]) and 67 nM at SHP2 (Table 20).
Take `Cn1cc2c(Cl)c(-c3c[nH]c4nc(N5[C@@H]6CCNC[C@H]5CC6)n(C)c(=O)c34)ccc2n1` (racemic) [Example 153, rac-5-(4-chloro-2-methyl-2H-indazol-5-yl)-2-[(1R,6S)-3,9-diazabicyclo[4.2.1]nonan-9-yl]-3-methyl-3H,4H,7H-pyrrolo[2,3-d]pyrimidin-4-one]: the IC50 in assay [1] (setting [2]) is 0.52 µM; at SHP2 (setting [3]) it was 26 nM.
In the case of `Cn1cc2c(Cl)c(-c3c[nH]c4nc(N5[C@@H]6CCNC[C@H]5CC6)n(C)c(=O)c34)ccc2n1` [Example 189, 5-(4-chloro-2-methyl-2H-indazol-5-yl)-2-[(1R,6S)-3,9-diazabicyclo[4.2.1]nonan-9-yl]-3-methyl-3H,4H,7H-pyrrolo[2,3-d]pyrimidin-4-one hydrochloride], the IC50 in assay [1] (setting [4]) is 0.23 µM; at SHP2 (Table 20), 19 nM.
Consider `Cn1cc2c(Cl)c(-c3n[nH]c4nc(N5[C@@H]6CC[C@H]5C[C@@H](N)C6)n(C)c(=O)c34)ccc2n1` [Example 136, endo-6-[3-amino-8-azabicyclo[3.2.1]octan-8-yl]-3-(4-chloro-2-methyl-2H-indazol-5-yl)-5-methyl-1H,4H,5H-pyrazolo[3,4-d]pyrimidin-4-one], for which the figures for the IC50 (in assay [1] (setting [2]); against SHP2 (setting [3])) were 2.7 µM and 30 nM, respectively.
As to `CCn1cc2cc(-c3c[nH]c4nc(N5CCC6(CC5)COC[C@H]6N)n(C)c(=O)c34)ccc2n1` [Example 180, 2-[(4S)-4-amino-2-oxa-8-azaspiro[4.5]decan-8-yl]-5-(2-ethyl-2H-indazol-5-yl)-3-methyl-3H,4H,7H-pyrrolo[2,3-d]pyrimidin-4-one hydrochloride], the values for the IC50 (in assay [1] (setting [4]); on SHP2 (Table 20)) were 0.85 µM and 34 nM, respectively.
On to `CN(C)c1ccc2ccc(-c3c[nH]c4nc(N5[C@H]6CC[C@@H]5[C@H](N)C6)n(C)c(=O)c34)c(Cl)c2n1` [Example 198, 2-[(1R,2R,4S)-2-amino-7-azabicyclo[2.2.1]heptan-7-yl]-5-[8-chloro-2-(dimethylamino)quinolin-7-yl]-3-methyl-3H,4H,7H-pyrrolo[2,3-d]pyrimidin-4-one hydrochloride], for which the half-maximal inhibitory concentration (IC50) is 0.066 µM in assay [1] (setting [4]) and 13 nM on SHP2 (Table 20).
In the case of `Cn1cc2c(Cl)c(-c3n[nH]c4nc(N5[C@@H]6CC[C@H]5C[C@H](N)C6)n(C)c(=O)c34)ccc2n1` [Example 140, exo-6-[3-amino-8-azabicyclo[3.2.1]octan-8-yl]-3-(4-chloro-2-methyl-2H-indazol-5-yl)-5-methyl-1H,4H,5H-pyrazolo[3,4-d]pyrimidin-4-one], the IC50 is 0.48 µM in assay [1] (setting [2]) and 17 nM at SHP2 (setting [3]).
Take `Cn1cc2c(Cl)c(-c3c[nH]c4nc(N5[C@@H]6CC[C@@H](N)[C@H]5CC6)n(C)c(=O)c34)ccc2n1` (racemic) [Example 152, rac-2-[(1R,2R,5R)-2-amino-8-azabicyclo[3.2.1]octan-8-yl]-5-(4-chloro-2-methyl-2H-indazol-5-yl)-3-methyl-3H,4H,7H-pyrrolo[2,3-d]pyrimidin-4-one]: the IC50 is 0.66 µM in assay [1] (setting [2]) and 29 nM on SHP2 (setting [3]).
